Results taken from patent publication US20260144776A1, “COMBINATION THERAPY FOR A DOPAMINE AGONIST” (priority 2017, published 2026).

Columns and labels:
[1] = tested on: depressive symptoms in patients with PD; conditions: 12 weeks, 296 PD patients, pramipexole 0.125 to 1.0 mg/kg; placebo 4.0 (SE 0.5), p=0.01; cited from earlier work
[2] = tested on: humans; conditions: in vivo
Protocol: The study was single center, single-blind study.
Once a subject had reached his/her first intolerable dose (FID-1), upward dose escalation was discontinued.
All other provisions of the protocol remained unchanged. Assessments were the same as those planned for the dose escalation day.
On each study day, subjects were followed up for up to 8 hours following drug administration for AEs, vital signs, ECGs. In addition, a laboratory panel was taken at screening and at the end of the study.

[3] = tested on: patients with a DSM-III-R diagnosis of major depression; conditions: pramipexole 5.0 mg group, cited from earlier work
[4] = tested on: animal behavior simulating symptoms of depression; conditions: high doses of pramipexole; cited from earlier work

In the case of `CCCN[C@H]1CCc2nc(N)sc2C1` [Pramipexole, (S)-6-propylamino-4,5,6,7-tetrahydro-1,3-benzothiazole-2-amine], the “BDI scores decreased by an adjusted” value [1] is given as 5.9 (SE 0.5), the dose limiting toxicity [2] is given as “gastro-intestinal adverse events” and the “patients who discontinued treatment prematurely” value ([3]; mainly because of adverse events) is given as 57.6%. For the same compound, the “improvement at week 8 (change from baseline)” value ([3]; best improvement, no p value against placebo because of drop-out rate) was −15.00, the “patients who reported nausea” value [3] was 76% and the “patients who reported vomiting” value [3] was 39%. For the same compound, the “activity in tests of animal behavior simulating symptoms of depression” value [4] was “active”.
